According to PubChem BioAssay AID1259407 (Chemical Carcinogenesis Research Information System (CCRIS), 2018):
Active and inactive are the calls of the source. How the calls were made is not given here.

Test system: CCRIS mutagenicity, Ames/micronucleus/aberration tests
Assay: CCRIS mutagenicity studies
[1] = Test System: AMES SALMONELLA TYPHIMURIUM, Strain/Indicator: TA98, Metabolic Activation: NONE, Method: STANDARD PLATE
[2] = Test System: AMES SALMONELLA TYPHIMURIUM, Strain/Indicator: TA98, Metabolic Activation: RAT, LIVER, S-9, AROCLOR 1254, Method: STANDARD PLATE
[3] = Test System: AMES SALMONELLA TYPHIMURIUM, Strain/Indicator: TA100, Metabolic Activation: NONE, Method: STANDARD PLATE
[4] = Test System: AMES SALMONELLA TYPHIMURIUM, Strain/Indicator: TA100, Metabolic Activation: RAT, LIVER, S-9, AROCLOR 1254, Method: STANDARD PLATE
[5] = Test System: AMES SALMONELLA TYPHIMURIUM, Strain/Indicator: TA1535, Metabolic Activation: NONE, Method: STANDARD PLATE
[6] = Test System: AMES SALMONELLA TYPHIMURIUM, Strain/Indicator: TA1535, Metabolic Activation: RAT, LIVER, S-9, AROCLOR 1254, Method: STANDARD PLATE
[7] = Test System: AMES SALMONELLA TYPHIMURIUM, Strain/Indicator: TA1537, Metabolic Activation: NONE, Method: STANDARD PLATE
[8] = Test System: AMES SALMONELLA TYPHIMURIUM, Strain/Indicator: TA1537, Metabolic Activation: RAT, LIVER, S-9, AROCLOR 1254, Method: STANDARD PLATE
[9] = Test System: AMES SALMONELLA TYPHIMURIUM, Strain/Indicator: TA1538, Metabolic Activation: NONE, Method: STANDARD PLATE
[10] = Test System: AMES SALMONELLA TYPHIMURIUM, Strain/Indicator: TA1538, Metabolic Activation: RAT, LIVER, S-9, AROCLOR 1254, Method: STANDARD PLATE
[11] = Test System: AMES SALMONELLA TYPHIMURIUM, Strain/Indicator: TA1535, Metabolic Activation: NONE, Method: PREINCUBATION

## CC(=O)N1CCC[C@H]1C(=O)N(CC(=O)O)N=O
[1]
  mutagenic call: inactive; negative
[2]
  mutagenic call: inactive; negative
Test System: AMES SALMONELLA TYPHIMURIUM, Strain/Indicator: TA100, Metabolic Activation: HOST MEDIATED, Method: STANDARD PLATE
  mutagenic call: active; positive
[3]
  mutagenic call: active; positive
[4]
  mutagenic call: active; positive
Test System: AMES SALMONELLA TYPHIMURIUM, Strain/Indicator: TA102, Metabolic Activation: NONE, Method: STANDARD PLATE
  mutagenic call: active; positive
Test System: AMES SALMONELLA TYPHIMURIUM, Strain/Indicator: TA102, Metabolic Activation: RAT, LIVER, S-9, AROCLOR 1254, Method: STANDARD PLATE
  mutagenic call: active; positive
[5]
  mutagenic call: active; positive
[6]
  mutagenic call: active; positive
[7]
  mutagenic call: inactive; negative
[8]
  mutagenic call: inactive; negative
[9]
  mutagenic call: inactive; negative
[10]
  mutagenic call: inactive; negative
Test System: CHO/HGPRT, Strain/Indicator: CHO-K1-BH4, Metabolic Activation: NONE
  mutagenic call: active; positive

## COP(=S)(OC)Oc1ccc(N)c(C)c1
[1]
  mutagenic call: inactive; negative
[2]
  mutagenic call: inactive; negative
[3]
  mutagenic call: inactive; negative
[4]
  mutagenic call: active; positive

## CCc1ccccc1O
Test System: AMES SALMONELLA TYPHIMURIUM, Strain/Indicator: TA97, Metabolic Activation: HAMSTER, LIVER, S-9, AROCLOR 1254 (10 OR 30%), Method: PREINCUBATION
  mutagenic call: inactive; negative
Test System: AMES SALMONELLA TYPHIMURIUM, Strain/Indicator: TA97, Metabolic Activation: NONE, Method: PREINCUBATION
  mutagenic call: inactive; negative
Test System: AMES SALMONELLA TYPHIMURIUM, Strain/Indicator: TA97, Metabolic Activation: RAT, LIVER, S-9, AROCLOR 1254 (10 OR 30%), Method: PREINCUBATION
  mutagenic call: inactive; negative
Test System: AMES SALMONELLA TYPHIMURIUM, Strain/Indicator: TA98, Metabolic Activation: HAMSTER, LIVER, S-9, AROCLOR 1254 (10 OR 30%), Method: PREINCUBATION
  mutagenic call: inactive; negative
Test System: AMES SALMONELLA TYPHIMURIUM, Strain/Indicator: TA98, Metabolic Activation: NONE, Method: PREINCUBATION
  mutagenic call: inactive; negative
Test System: AMES SALMONELLA TYPHIMURIUM, Strain/Indicator: TA98, Metabolic Activation: RAT, LIVER, S-9, AROCLOR 1254 (10 OR 30%), Method: PREINCUBATION
  mutagenic call: inactive; negative
Test System: AMES SALMONELLA TYPHIMURIUM, Strain/Indicator: TA100, Metabolic Activation: HAMSTER, LIVER, S-9, AROCLOR 1254 (10 OR 30%), Method: PREINCUBATION
  mutagenic call: inactive; negative
Test System: AMES SALMONELLA TYPHIMURIUM, Strain/Indicator: TA100, Metabolic Activation: NONE, Method: PREINCUBATION
  mutagenic call: inactive; negative
Test System: AMES SALMONELLA TYPHIMURIUM, Strain/Indicator: TA100, Metabolic Activation: RAT, LIVER, S-9, AROCLOR 1254 (10 OR 30%), Method: PREINCUBATION
  mutagenic call: inactive; negative
Test System: AMES SALMONELLA TYPHIMURIUM, Strain/Indicator: TA1535, Metabolic Activation: HAMSTER, LIVER, S-9, AROCLOR 1254 (10 OR 30%), Method: PREINCUBATION
  mutagenic call: inactive; negative
[11]
  mutagenic call: inactive; negative
Test System: AMES SALMONELLA TYPHIMURIUM, Strain/Indicator: TA1535, Metabolic Activation: RAT, LIVER, S-9, AROCLOR 1254 (10 OR 30%), Method: PREINCUBATION
  mutagenic call: inactive; negative

## N1=NC2[C@@H]3O[C@@H]3C1[C@H]1O[C@@H]21
[1]
  mutagenic call: inactive; negative
Test System: AMES SALMONELLA TYPHIMURIUM, Strain/Indicator: TA98, Metabolic Activation: RAT, LIVER, S-9, PHENOBARBITAL, Method: STANDARD PLATE
  mutagenic call: inactive; negative
[3]
  mutagenic call: inactive; negative
Test System: AMES SALMONELLA TYPHIMURIUM, Strain/Indicator: TA100, Metabolic Activation: RAT, LIVER, S-9, PHENOBARBITAL, Method: STANDARD PLATE
  mutagenic call: inactive; negative
Test System: AMES SALMONELLA TYPHIMURIUM, Strain/Indicator: TM677/8-AZAGUANINE, Metabolic Activation: NONE, Method: STANDARD PLATE
  mutagenic call: inactive; negative

## C[n+]1c2ccccc2cc2cc(N)ccc21
[11]
  mutagenic call: inactive; negative
Test System: AMES SALMONELLA TYPHIMURIUM, Strain/Indicator: TA1535, Metabolic Activation: RAT, LIVER, S-9, TETRACHLOROBIPHENYL, Method: PREINCUBATION
  mutagenic call: inactive; negative
Test System: AMES SALMONELLA TYPHIMURIUM, Strain/Indicator: TA1537, Metabolic Activation: NONE, Method: PREINCUBATION
  mutagenic call: active; positive
Test System: AMES SALMONELLA TYPHIMURIUM, Strain/Indicator: TA1537, Metabolic Activation: RAT, LIVER, S-9, TETRACHLOROBIPHENYL, Method: PREINCUBATION
  mutagenic call: active; positive
Test System: AMES SALMONELLA TYPHIMURIUM, Strain/Indicator: TA1538, Metabolic Activation: NONE, Method: PREINCUBATION
  mutagenic call: active; positive
Test System: AMES SALMONELLA TYPHIMURIUM, Strain/Indicator: TA1538, Metabolic Activation: RAT, LIVER, S-9, TETRACHLOROBIPHENYL, Method: PREINCUBATION
  mutagenic call: active; positive
Test System: AMES SALMONELLA TYPHIMURIUM, Strain/Indicator: TA1977, Metabolic Activation: NONE, Method: PREINCUBATION
  mutagenic call: active; positive
Test System: AMES SALMONELLA TYPHIMURIUM, Strain/Indicator: TA1977, Metabolic Activation: RAT, LIVER, S-9, TETRACHLOROBIPHENYL, Method: PREINCUBATION
  mutagenic call: active; positive
Test System: AMES SALMONELLA TYPHIMURIUM, Strain/Indicator: TA1978, Metabolic Activation: NONE, Method: PREINCUBATION
  mutagenic call: active; positive
Test System: AMES SALMONELLA TYPHIMURIUM, Strain/Indicator: TA1978, Metabolic Activation: RAT, LIVER, S-9, TETRACHLOROBIPHENYL, Method: PREINCUBATION
  mutagenic call: active; positive

## Cc1ccc(N=Nc2ccc(N(CCO)CCO)cc2)cc1
Test System: AMES SALMONELLA TYPHIMURIUM, Strain/Indicator: TA98, Metabolic Activation: HAMSTER, LIVER, S-9, AROCLOR 1254, Method: STANDARD PLATE
  mutagenic call: inactive; negative
[1]
  mutagenic call: inactive; negative
Test System: AMES SALMONELLA TYPHIMURIUM, Strain/Indicator: TA98, Metabolic Activation: RAT, LIVER, S-9, AROCLOR 1254, Method: PREINCUBATION
  mutagenic call: inactive; negative
[2]
  mutagenic call: inactive; negative
[3]
  mutagenic call: inactive; negative
[4]
  mutagenic call: inactive; negative
[5]
  mutagenic call: inactive; negative
[6]
  mutagenic call: inactive; negative
[7]
  mutagenic call: inactive; negative
[8]
  mutagenic call: inactive; negative
[9]
  mutagenic call: inactive; negative
[10]
  mutagenic call: inactive; negative

## Nc1ccc2c(c1)-c1cccc3cccc-2c13
Test System: AMES SALMONELLA TYPHIMURIUM, Strain/Indicator: TA98, Metabolic Activation: RAT, LIVER, S-9, AROCLOR 1254 (2 OR 4%), Method: STANDARD PLATE
  mutagenic call: active; positive
Test System: AMES SALMONELLA TYPHIMURIUM, Strain/Indicator: TA100, Metabolic Activation: RAT, LIVER, S-9, AROCLOR 1254 (2%), Method: STANDARD PLATE
  mutagenic call: active; positive
Test System: AMES SALMONELLA TYPHIMURIUM, Strain/Indicator: TA1535, Metabolic Activation: RAT, LIVER, S-9, AROCLOR 1254 (2%), Method: STANDARD PLATE
  mutagenic call: inactive; negative
Test System: AMES SALMONELLA TYPHIMURIUM, Strain/Indicator: TA1537, Metabolic Activation: RAT, LIVER, S-9, AROCLOR 1254 (2%), Method: STANDARD PLATE
  mutagenic call: active; positive
